The record followed here is PubChem BioAssay (NCI).

Molecules are shown by their SMILES. Several values for one entry are separate records, joined by “and”; a condition that tells them apart may be missing. Equal entries are not always repeated.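 Interpolation was linear, between the two tested concentrations surrounding the appropriate level; five concentrations were tested over 48 hours in 96-well plates. The concentration for 50% growth inhibition is given as GI50. At the TGI there is no net growth.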

Among the test systems are DU-145 prostate; OVCAR-4 ovarian; HT29 colon; NCI/ADR-RES ovarian; SK-OV-3 ovarian; HCT-116 colon; RPMI-8226 leukemia; OVCAR-5 ovarian; HCT-15 colon; K-562 leukemia.
Common to all, as to test: growth of human tumour cells (NCI), 48 h

`CC1(O)COCCCCOc2c(CN)cccc2NC(=O)c2nc(cnc2N)-c2ccc(cc2)S(=O)(=O)C(C)(C)C1` (stereo not drawn): the GI50 with DU-145 prostate is 38.8 nM; in the assay with OVCAR-4 ovarian, 1290 nM; in the assay on HT29 colon, 408 nM; in the assay on NCI/ADR-RES ovarian it was 1710 nM; with SK-OV-3 ovarian, 1370 nM; in the assay with HCT-116 colon, 129 nM. The GI50 with RPMI-8226 leukemia was 1200 nM; with OVCAR-5 ovarian it was 2040 nM; in the assay with HCT-15 colon, 227 nM. The TGI in the assay on DU-145 prostate was 2.04 µM; in the assay with OVCAR-4 ovarian, 2.71 µM; in the assay with HT29 colon, 2.47 µM; in the assay on NCI/ADR-RES ovarian it was 4.02 µM; in the assay on SK-OV-3 ovarian it was 2.8 µM; in the assay with HCT-116 colon, 1.12 µM. Further, the TGI came out at 3.5 µM with RPMI-8226 leukemia, 3.56 µM with OVCAR-5 ovarian and 1.82 µM in the assay with HCT-15 colon.
As to `Oc1ccc(-c2nc3cc(F)ccc3s2)cc1`, the TGI in the assay on DU-145 prostate worked out at 41.3 µM; in the assay on OVCAR-4 ovarian, 36.9 µM; with HT29 colon it was 56.7 µM; with K-562 leukemia, 72.3 µM; in the assay on NCI/ADR-RES ovarian it was 42.4 µM; in the assay on SK-OV-3 ovarian, 50.7 µM. Besides, the TGI with HCT-116 colon stood at 42.1 µM; in the assay on RPMI-8226 leukemia, 60.5 µM; in the assay on OVCAR-5 ovarian, 58.4 µM; in the assay on HCT-15 colon, 68.2 µM.
Turning to `CO/N=C(\C)c1cccc(Nc2nc3ccccc3c3occc23)c1`, the TGI in the assay on DU-145 prostate worked out at 30.8 µM; in the assay on OVCAR-4 ovarian, 31.8 µM; in the assay with HT29 colon, 17.6 µM; with K-562 leukemia, 38.2 µM; in the assay on NCI/ADR-RES ovarian, 30.7 µM; in the assay on SK-OV-3 ovarian it was 27.1 µM. Besides, the TGI in the assay with HCT-116 colon was found to be 23.8 µM; in the assay on RPMI-8226 leukemia, 40.8 µM; with OVCAR-5 ovarian, 27.6 µM; in the assay with HCT-15 colon, 24.5 µM.
With `CCc1ccc2c(c1)C(=O)c1c-2n(CCCN)c(=O)c2cc([N+](=O)[O-])ccc12`, the GI50 in the assay with DU-145 prostate is 775 nM; in the assay on OVCAR-4 ovarian it was 1390 nM; in the assay on HT29 colon, 452 nM; in the assay with K-562 leukemia it was 243 nM; in the assay on NCI/ADR-RES ovarian, 1620 nM; in the assay with HCT-116 colon it was 573 nM. For the same molecule, the GI50 in the assay with OVCAR-5 ovarian is 2070 nM. Moreover, the TGI with DU-145 prostate came to 2.05 µM; in the assay on OVCAR-4 ovarian it was 3 µM; in the assay with HT29 colon, 2.07 µM; in the assay with K-562 leukemia it was 0.756 µM; in the assay with NCI/ADR-RES ovarian, 3.29 µM; in the assay with HCT-116 colon it was 1.89 µM. Further, in the assay on OVCAR-5 ovarian, the TGI is 3.59 µM.
For the molecule `COc1cc([N+](=O)[O-])ccc1N1C(=O)C2c3[nH]c4ccccc4c3C3CCC(C(C)(C)C)CC3C2C1=O` (stereo not drawn), the TGI with DU-145 prostate, in the assay with OVCAR-4 ovarian, in the assay on HT29 colon, in the assay on NCI/ADR-RES ovarian, in the assay with SK-OV-3 ovarian and in the assay on HCT-116 colon was more than 100 µM each time. In addition, the TGI in the assay with RPMI-8226 leukemia, with OVCAR-5 ovarian and with HCT-15 colon was more than 100 µM each time.
With `Cc1ccc([N+](=O)[O-])cc1S(=O)(=O)Nc1ccc(C2=NOC(c3ccccc3O)C2)cc1` (stereo not drawn), the TGI in the assay with DU-145 prostate was more than 100 µM; in the assay on OVCAR-4 ovarian it was 22.4 µM; in the assay with HT29 colon it was 30.8 µM; in the assay with K-562 leukemia, more than 100 µM; with NCI/ADR-RES ovarian, 8.53 µM; with SK-OV-3 ovarian it was more than 100 µM. The TGI in the assay with HCT-116 colon is 34.5 µM; in the assay with RPMI-8226 leukemia it was more than 100 µM; in the assay with OVCAR-5 ovarian, more than 100 µM; in the assay with HCT-15 colon, 85.3 µM.
On to `COc1cc([N+](=O)[O-])ccc1NC(=O)c1cccc([N+](=O)[O-])c1O`, for which the TGI was more than 100 µM with OVCAR-4 ovarian; more than 100 µM with HT29 colon; more than 100 µM with K-562 leukemia; 77.9 µM with SK-OV-3 ovarian; more than 100 µM with HCT-116 colon; 61.9 µM in the assay with RPMI-8226 leukemia. In addition, the TGI with OVCAR-5 ovarian and with HCT-15 colon was more than 100 µM each time.
Regarding `CNC(C)Cc1ccccc1OC` (stereo not drawn), the TGI in the assay on OVCAR-4 ovarian, in the assay on HT29 colon, with K-562 leukemia, in the assay on SK-OV-3 ovarian, with HCT-116 colon and in the assay with RPMI-8226 leukemia was more than 100 µM each time. In addition, the TGI with OVCAR-5 ovarian and in the assay with HCT-15 colon was more than 100 µM throughout.
`c1c2c(cc3c1OCO3)-c1cc3ccc4c(c3c[n+]1CC2)OCO4`: the TGI in the assay with DU-145 prostate was more than 12.5 µM; in the assay with OVCAR-4 ovarian it was more than 12.5 µM; in the assay on HT29 colon, more than 12.5 µM; with K-562 leukemia, more than 12.5 µM; in the assay with NCI/ADR-RES ovarian, 1.28 µM; in the assay on SK-OV-3 ovarian, more than 12.5 µM. Further, the TGI with HCT-116 colon was more than 5.82 µM; with RPMI-8226 leukemia, more than 12.5 µM; in the assay on OVCAR-5 ovarian, more than 12.5 µM; with HCT-15 colon, 4.77 µM.
In the case of `CCO[C@]12CCC[C@H]1[C@@H]1C(=O)c3ccccc3C(=O)C1=C(C)O2`, the TGI in the assay on DU-145 prostate was more than 100 µM; in the assay with OVCAR-4 ovarian, 97.9 µM; in the assay with HT29 colon, more than 100 µM; with K-562 leukemia it was 94.7 µM; with NCI/ADR-RES ovarian it was more than 100 µM; with SK-OV-3 ovarian, more than 100 µM. Further, the TGI in the assay with RPMI-8226 leukemia, in the assay on OVCAR-5 ovarian and with HCT-15 colon was more than 100 µM in each case.
Consider `O=C1OC2(OC2c2ccc(Cl)cc2)c2ccccc21` (stereo not drawn), for which the TGI with OVCAR-4 ovarian, with HT29 colon, in the assay with K-562 leukemia, in the assay on SK-OV-3 ovarian, in the assay with HCT-116 colon and in the assay with RPMI-8226 leukemia was more than 100 µM each time. The TGI in the assay with OVCAR-5 ovarian and with HCT-15 colon was more than 100 µM in each case.
Regarding `CN(C)CCCN1c2ccc([N+](=O)[O-])cc2CCc2cc([N+](=O)[O-])ccc21`, the TGI in the assay on DU-145 prostate was 30.2 µM and 33 µM; in the assay on OVCAR-4 ovarian, 14 µM and 31.3 µM; in the assay on HT29 colon, 30.8 µM and 27.7 µM; in the assay on K-562 leukemia, 59.5 µM and 31.2 µM; in the assay on NCI/ADR-RES ovarian, 30.8 µM and 32.6 µM; in the assay with SK-OV-3 ovarian, 32.4 µM and 29 µM. The TGI with HCT-116 colon was 27.4 µM and 27.1 µM; in the assay on RPMI-8226 leukemia, 55.3 µM and 34.1 µM; in the assay on OVCAR-5 ovarian, 28.6 µM and 28 µM; in the assay with HCT-15 colon it was 33 µM and 33.6 µM.
Regarding `CCOC(=O)Nc1cc2c(c(N)n1)N=C(c1ccc3ccccc3c1)CN2`, the TGI is more than 100 µM with DU-145 prostate; more than 64.6 µM in the assay on OVCAR-4 ovarian; 1.5 µM in the assay on HT29 colon; 10.3 µM in the assay on K-562 leukemia; 0.16 µM in the assay on NCI/ADR-RES ovarian; 18.9 µM in the assay with SK-OV-3 ovarian. The TGI in the assay on HCT-116 colon was 1.49 µM; in the assay with OVCAR-5 ovarian it was more than 56.8 µM; in the assay with HCT-15 colon, more than 100 µM.
